Experimental data published in US12408604B2, “Method for producing avenanthramide-rich oats using active elicitors” (KOREA RESEARCH INSTITUTE OF BIOSCIENCE AND BIOTECHNOLOGY, priority 2020, dated 2025).

What was measured:
Assay type in all cases: in vivo
Choyang oats = assay: Production (content) of avenanthramides in germinated oats treated with elicitors, HPLC analysis; conditions: for production of avenanthramides compared to control group: Example 3, FIG. 2, SA vs control DW, ABA vs control EtOH; for production of avenanthramides over tested concentrations: Example 5, MJ 10-100 μM, ABA 10-300 μM; for synthesis amount / content of avenanthramides in oats compared to other elicitors: Examples 3 and 4, FIG. 2
Experimental: In an embodiment of the present invention, a domestic cultivated breed, Choyang oats, was used. The Choyang oat seeds were immersed for 12 hours, and then sterilized at 50° C. for 10 minutes and used. Two sheets of sterile filter paper were laid on a plant culture dish, poured with 7 ml of water, and then the sterilized Choyang oat seeds were placed and cold-treated at 4° C. for two days. The Choyang oat seeds were cultured under culture conditions of 25° C. and a photoperiod of 16L:8D.
Analysis of avenanthramides of germinated oats recovered in Example of the present invention was performed as follows. First, the obtained germinated oats were powdered using liquid nitrogen. 0.1 g of the oat powder was extracted with 1 ml of 80% methanol, and then sonicated at 50° C. for 20 minutes, extracted, and then centrifuged to obtain an oat extract from an upper layer. The extracted filtrate was dried by injecting air, and the dried product was dissolved in 200 μl of 80% methanol, and filtered using 0.2 μm PTFE (hydrophilic, ADVANTEC, Japan), and the sample was used for high-performance liquid chromatography (HPLC) analysis. A pump system used 4 solvent pumps (quaternary pumps), and a column used ZORBAX SB-18 ([…], 4.6×150 mm) from Agilent, and a mobile phase was analyzed by using gradient elution using water (A, 5% acetonitrile, 0.1% formic acid) and acetonitrile. (B, 0.1% formic acid).
After treatment with the elicitors for 3 days, the avenanthramides were harvested and HPLC was performed. The elicitors used at this time were methyl jasmonate (MJ), abscisic acid (ABA), salicylic acid (SA), ethephon (ET), methyl viologen (MV), and chitosan (CHI). DW was used as a solvent for MV, CHI, and SA, and EtOH was used as a solvent for ET, MJ, and ABA. A case of treating only DW and EtOH (0.1%), which are solvents of each elicitor, was set as a control.
Like in Example 3, 10 μM, 20 μM, 25 μM, 50 μM, 75 μM, and 100 μM of MJ and 10 μM, 20 μM, 25 μM, 50 μM, 75 μM, 100 μM, and 300 μM of ABA were treated by concentration on day 2 after germination, recovered on day 5 after germination, then frozen using liquid nitrogen, and stored at −80° C. until extraction and used. As a control, EtOH, a solvent of MJ and ABA, was treated at a concentration of 0.1%. The experimental results were shown in Tables 2 and 3 and FIGS. 4 and 5 below. […]

AsHHT4 = assay: qRT-PCR transcriptional expression of avenanthramide biosynthetic gene AsHHT4 in elicitor-treated oats; conditions: single elicitor treatment, Example 4, FIG. 3
Experimental: (§1) Specifically, total RNA was isolated from the recovered oats, and cDNA was synthesized from the isolated total RNA using a First-Strand CDNA Synthesis Kit (Fermantas, Canada). By using the synthesized cDNA, qRT-PCR was performed on avenanthramide biosynthesis-related genes.
(§2) For the qRT-PCR amplification, a Quick Guide from BIOFACT was used, and a process of initial denaturation at 95° C. for 15 minutes and denaturation at 95° C. for 20 seconds, binding and elongation at […] for 40 seconds was repeated 40 times, and melting curve analysis was performed at 65° C. to 95° C. by 1° C. for 0.5 second.
(§3) Primers for avenanthramides biosynthesis genes and actin qRT-PCR used for the experiment were as follows.

AsPAL = assay: qRT-PCR transcriptional expression of avenanthramide biosynthetic gene AsPAL in elicitor-treated oats; conditions: single elicitor treatment, Example 4, FIG. 3
Experimental: as §1, §2, §3

[1] = 10 μM elicitor, control EtOH 0.1%
[2] = 10 μM elicitor, treated day 2, recovered day 5 after germination
[3] = 20 μM elicitor, control EtOH 0.1%
[4] = 20 μM elicitor, treated day 2, recovered day 5 after germination
[5] = 25 μM elicitor, control EtOH 0.1%
[6] = 25 μM elicitor, treated day 2, recovered day 5 after germination
[7] = 50 μM elicitor, control EtOH 0.1%
[8] = 50 μM elicitor, treated day 2, recovered day 5 after germination
[9] = 75 μM elicitor, control EtOH 0.1%
[10] = 75 μM elicitor, treated day 2, recovered day 5 after germination
[11] = 100 μM elicitor, control EtOH 0.1%
[12] = 100 μM elicitor, treated day 2, recovered day 5 after germination
[13] = 300 μM elicitor, treated day 2, recovered day 5 after germination
[14] = Example 3, elicitor treated on day 2 after germination induction for 3 days, concentration not given
[15] = Example 3, total avenanthramides, control DW for MV, CHI, SA, control EtOH for ET, MJ, ABA

CC1=CC(=O)CC(C)(C)[C@@]1(O)/C=C/C(C)=C\C(=O)O [ABA, abscisic acid]
Compared to control (Choyang oats; [1]): 176.85%
avnA (Choyang oats; [2]): 177.8 mg/kg, FW
avnB (Choyang oats; [2]): 299.1 mg/kg, FW
avnC (Choyang oats; [2]): 197.11 mg/kg, FW
total (Choyang oats; [2]): 674.01 mg/kg, FW
Compared to control (Choyang oats; [3]): 185.33%
avnA (Choyang oats; [4]): 185.34 mg/kg, FW
avnB (Choyang oats; [4]): 319.67 mg/kg, FW
avnC (Choyang oats; [4]): 189.65 mg/kg, FW
total (Choyang oats; [4]): 694.66 mg/kg, FW
Compared to control (Choyang oats; [5]): 225.40%
avnA (Choyang oats; [6]): 202.56 mg/kg, FW
avnB (Choyang oats; [6]): 363.51 mg/kg, FW
avnC (Choyang oats; [6]): 226.14 mg/kg, FW
total (Choyang oats; [6]): 792.21 mg/kg, FW
Compared to control (Choyang oats; [7]): 240.45%
avnA (Choyang oats; [8]): 206.95 mg/kg, FW
avnB (Choyang oats; [8]): 385.73 mg/kg, FW
avnC (Choyang oats; [8]): 236.19 mg/kg, FW
total (Choyang oats; [8]): 828.87 mg/kg, FW
Compared to control (Choyang oats; [9]): 217.58%
avnA (Choyang oats; [10]): 211.62 mg/kg, FW
avnB (Choyang oats; [10]): 328.63 mg/kg, FW
avnC (Choyang oats; [10]): 232.94 mg/kg, FW
total (Choyang oats; [10]): 773.19 mg/kg, FW
Compared to control (Choyang oats; [11]): 184.80%
avnA (Choyang oats; [12]): 186.05 mg/kg, FW
avnB (Choyang oats; [12]): 309.78 mg/kg, FW
avnC (Choyang oats; [12]): 197.55 mg/kg, FW
total (Choyang oats; [12]): 693.38 mg/kg, FW
Compared to control (Choyang oats; 300 μM elicitor, control EtOH 0.1%): 189.98%
avnA (Choyang oats; [13]): 193.65 mg/kg, FW
avnB (Choyang oats; [13]): 328.02 mg/kg, FW
avnC (Choyang oats; [13]): 184.32 mg/kg, FW
total (Choyang oats; [13]): 705.99 mg/kg, FW
largest amount of avenanthramides produced (Choyang oats; ABA at a 50 μM concentration (FIG. 5)): up to 828.8 mg/kg
production of avenanthramides in oats (Choyang oats; ABA at concentrations of 20 to 300 μM): significantly increased
production of avenanthramide C (Choyang oats; Example 3): specifically increased the most
production of avenanthramides compared to control group (Choyang oats; CHI, MJ): significantly increased
avnA (Choyang oats; [14]): 193.78 mg/kg, FW
avnB (Choyang oats; [14]): 207.37 mg/kg, FW
avnC (Choyang oats; [14]): 241.72 mg/kg, FW
total (Choyang oats; [14]): 642.87 mg/kg, FW
Compared to control (Choyang oats; [15]): 176.42%
production of avenanthramides over tested concentrations (Choyang oats): increased at all concentrations
synthesis amount / content of avenanthramides in oats compared to other elicitors (Choyang oats): most increased
synthesis amount / content of avenanthramides in oats compared to other elicitors (Choyang oats; listed as abscisic acid): increased most
expression of AsHHT4 gene (AsHHT4): increased
expression of AsPAL gene (AsPAL): increased

O=P(O)(O)CCCl [ET, ethephon]
avnA (Choyang oats; [14]): 86 mg/kg, FW
avnB (Choyang oats; [14]): 145.36 mg/kg, FW
avnC (Choyang oats; [14]): 74.96 mg/kg, FW
total (Choyang oats; [14]): 306.32 mg/kg, FW
Compared to control (Choyang oats; [15]): 31.71%

CC/C=C\C[C@H]1C(=O)CC[C@@H]1CC(=O)OC [MJ, methyl jasmonate]
Compared to control (Choyang oats; [1]): 37.41%
avnA (Choyang oats; [2]): 93.22 mg/kg, FW
avnB (Choyang oats; [2]): 163.98 mg/kg, FW
avnC (Choyang oats; [2]): 77.35 mg/kg, FW
total (Choyang oats; [2]): 334.55 mg/kg, FW
Compared to control (Choyang oats; [3]): 45.03%
avnA (Choyang oats; [4]): 98.32 mg/kg, FW
avnB (Choyang oats; [4]): 168.66 mg/kg, FW
avnC (Choyang oats; [4]): 86.12 mg/kg, FW
total (Choyang oats; [4]): 353.1 mg/kg, FW
Compared to control (Choyang oats; [5]): 57.97%
avnA (Choyang oats; [6]): 105.54 mg/kg, FW
avnB (Choyang oats; [6]): 200.86 mg/kg, FW
avnC (Choyang oats; [6]): 78.2 mg/kg, FW
total (Choyang oats; [6]): 384.6 mg/kg, FW
Compared to control (Choyang oats; [7]): 99.80%
avnA (Choyang oats; [8]): 147.03 mg/kg, FW
avnB (Choyang oats; [8]): 222.81 mg/kg, FW
avnC (Choyang oats; [8]): 116.59 mg/kg, FW
total (Choyang oats; [8]): 486.43 mg/kg, FW
Compared to control (Choyang oats; [9]): 137.67%
avnA (Choyang oats; [10]): 179.81 mg/kg, FW
avnB (Choyang oats; [10]): 268.73 mg/kg, FW
avnC (Choyang oats; [10]): 130.08 mg/kg, FW
total (Choyang oats; [10]): 578.62 mg/kg, FW
Compared to control (Choyang oats; [11]): 88.13%
avnA (Choyang oats; [12]): 138.82 mg/kg, FW
avnB (Choyang oats; [12]): 218.47 mg/kg, FW
avnC (Choyang oats; [12]): 100.73 mg/kg, FW
total (Choyang oats; [12]): 458.02 mg/kg, FW
production of avenanthramides compared to control group (Choyang oats; CHI, MJ): significantly increased
avnA (Choyang oats; [14]): 190.07 mg/kg, FW
avnB (Choyang oats; [14]): 260.43 mg/kg, FW
avnC (Choyang oats; [14]): 132.39 mg/kg, FW
total (Choyang oats; [14]): 582.89 mg/kg, FW
Compared to control (Choyang oats; [15]): 150.63%
production of avenanthramides over tested concentrations (Choyang oats): increased at all concentrations
synthesis amount / content of avenanthramides in oats compared to other elicitors (Choyang oats): most increased
synthesis amount / content of avenanthramides in oats compared to other elicitors (Choyang oats; listed as methyl jasmonate): increased most
largest amount of avenanthramides produced (Choyang oats; MJ at a concentration of 75 μM (FIG. 4)): up to 578.6 mg/kg
production of avenanthramides in oats (Choyang oats; MJ at concentrations of 10 μM to 100 μM): significantly increased
expression of AsHHT4 gene (AsHHT4): increased
expression of AsPAL gene (AsPAL): increased

C[n+]1ccc(-c2cc[n+](C)cc2)cc1 [MV, methyl viologen]
avnA (Choyang oats; [14]): 95.37 mg/kg, FW
avnB (Choyang oats; [14]): 169.01 mg/kg, FW
avnC (Choyang oats; [14]): 84.14 mg/kg, FW
total (Choyang oats; [14]): 348.52 mg/kg, FW
Compared to control (Choyang oats; [15]): 3.74%

O=C(O)c1ccccc1O [SA, salicylic acid]
production of avenanthramides compared to control group (Choyang oats; CHI, MJ): slightly decreased
avnA (Choyang oats; [14]): 90.53 mg/kg, FW
avnB (Choyang oats; [14]): 149.58 mg/kg, FW
avnC (Choyang oats; [14]): 64.34 mg/kg, FW
total (Choyang oats; [14]): 304.45 mg/kg, FW
Compared to control (Choyang oats; [15]): −9.38%
